Measured values: PubChem BioAssay AID1963450 (Molecular Pharmacology Branch, DTP, NCI, 2024)
Blank lines part the entries; values can stand above or below the molecule they belong to.

Tested on: 556581-035-R-J1-PDC complex spheroid growth
Experiment: Anticancer human tumor 556581-035-R-J1-PDC patient-derived ovarian carcinoma cell line growth inhibition [Asc]
Details: for IC50: curve of first compound; for viability, T/C: stronger effect = lower value
Outline: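 Stromal components (HUVEC and hMSC) are co-assembled with the cancer cells into multicellular spheroids. Drugs are then added singly or paired, at concentrations falling by half-log increments from a clinically achievable maximum, capped at 10 microM without known Cmax.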
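Note: spheroids exposed to agents for 7 days before viability read.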

IC50 (second compound 0.03 µM): > 100 nM | IC50 (second compound 0.0949 µM): > 100 nM | IC50 (second compound 0.3 µM): > 100 nM | IC50 (second compound 0.949 µM): > 100 nM | IC50 (second compound 3 µM): > 100 nM
SMILES: NC1CCC(NC2CC2c2ccccc2)CC1 (configuration not stated) + CCN1C(C(=O)NC23CCC(C(=O)O)(CC2)CC3)C(c2cccc(Cl)c2F)C2(C(=O)Nc3cc(Cl)ccc32)C12CCCCC2
viability, T/C (second compound 0.03 µM, first compound 0.000316 µM): 105% | viability, T/C (second compound 0.03 µM, first compound 0.001 µM): 103% | viability, T/C (second compound 0.03 µM, first compound 0.00316 µM): 107% | viability, T/C (second compound 0.03 µM, first compound 0.01 µM): 98.7% | viability, T/C (second compound 0.03 µM, first compound 0.0316 µM): 97.7% | viability, T/C (second compound 0.03 µM, first compound 0.1 µM): 84.5% | viability, T/C (second compound 0.0949 µM, first compound 0.000316 µM): 113% | viability, T/C (second compound 0.0949 µM, first compound 0.001 µM): 105% | viability, T/C (second compound 0.0949 µM, first compound 0.00316 µM): 100% | viability, T/C (second compound 0.0949 µM, first compound 0.01 µM): 93% | viability, T/C (second compound 0.0949 µM, first compound 0.0316 µM): 107% | viability, T/C (second compound 0.0949 µM, first compound 0.1 µM): 103% | viability, T/C (second compound 0.3 µM, first compound 0.000316 µM): 108% | viability, T/C (second compound 0.3 µM, first compound 0.001 µM): 100% | viability, T/C (second compound 0.3 µM, first compound 0.00316 µM): 105% | viability, T/C (second compound 0.3 µM, first compound 0.01 µM): 100% | viability, T/C (second compound 0.3 µM, first compound 0.0316 µM): 97.7% | viability, T/C (second compound 0.3 µM, first compound 0.1 µM): 96.6% | viability, T/C (second compound 0.949 µM, first compound 0.000316 µM): 107% | viability, T/C (second compound 0.949 µM, first compound 0.001 µM): 92.1% | viability, T/C (second compound 0.949 µM, first compound 0.00316 µM): 82.9% | viability, T/C (second compound 0.949 µM, first compound 0.01 µM): 106% | viability, T/C (second compound 0.949 µM, first compound 0.0316 µM): 95.2% | viability, T/C (second compound 0.949 µM, first compound 0.1 µM): 96.5% | viability, T/C (second compound 3 µM, first compound 0.000316 µM): 85.7% | viability, T/C (second compound 3 µM, first compound 0.001 µM): 101% | viability, T/C (second compound 3 µM, first compound 0.00316 µM): 89.1% | viability, T/C (second compound 3 µM, first compound 0.01 µM): 85.1% | viability, T/C (second compound 3 µM, first compound 0.0316 µM): 92.8% | viability, T/C (second compound 3 µM, first compound 0.1 µM): 92.7%

IC50 (second compound 0.1 µM): > 10000 nM | IC50 (second compound 0.316 µM): > 10000 nM | IC50 (second compound 1 µM): > 10000 nM | IC50 (second compound 3.16 µM): > 10000 nM | IC50 (second compound 10 µM): > 10000 nM
SMILES: C=CC(=O)N1CCN(c2nc(=O)n(-c3c(C)ccnc3C(C)C)c3nc(-c4c(O)cccc4F)c(F)cc23)C(C)C1 (configuration not stated) + Cc1c(S(C)(=O)=O)c(-c2cc(F)cc(N3CCN(c4ccc(NS(=O)(=O)c5ccc(NC(CCN6CCC(C(=O)OCCCP(=O)(O)O)CC6)CSc6ccccc6)c(S(=O)(=O)C(F)(F)F)c5)cc4)CC3)c2)c(-c2ccc(Cl)cc2)n1C(C)C
viability, T/C (second compound 0.1 µM, first compound 0.0316 µM): 86.6% | viability, T/C (second compound 0.1 µM, first compound 0.1 µM): 83.6% | viability, T/C (second compound 0.1 µM, first compound 0.316 µM): 78.8% | viability, T/C (second compound 0.1 µM, first compound 1 µM): 89.6% | viability, T/C (second compound 0.1 µM, first compound 3.16 µM): 80.1% | viability, T/C (second compound 0.1 µM, first compound 10 µM): 57.9% | viability, T/C (second compound 0.316 µM, first compound 0.0316 µM): 90.8% | viability, T/C (second compound 0.316 µM, first compound 0.1 µM): 98.3% | viability, T/C (second compound 0.316 µM, first compound 0.316 µM): 79.1% | viability, T/C (second compound 0.316 µM, first compound 1 µM): 80% | viability, T/C (second compound 0.316 µM, first compound 3.16 µM): 81.8% | viability, T/C (second compound 0.316 µM, first compound 10 µM): 64.9% | viability, T/C (second compound 1 µM, first compound 0.0316 µM): 71.8% | viability, T/C (second compound 1 µM, first compound 0.1 µM): 71.6% | viability, T/C (second compound 1 µM, first compound 0.316 µM): 77.6% | viability, T/C (second compound 1 µM, first compound 1 µM): 71.5% | viability, T/C (second compound 1 µM, first compound 3.16 µM): 73.6% | viability, T/C (second compound 1 µM, first compound 10 µM): 58.9% | viability, T/C (second compound 3.16 µM, first compound 0.0316 µM): 72.1% | viability, T/C (second compound 3.16 µM, first compound 0.1 µM): 78.1% | viability, T/C (second compound 3.16 µM, first compound 0.316 µM): 62.2% | viability, T/C (second compound 3.16 µM, first compound 1 µM): 72% | viability, T/C (second compound 3.16 µM, first compound 3.16 µM): 66.4% | viability, T/C (second compound 3.16 µM, first compound 10 µM): 56.8% | viability, T/C (second compound 10 µM, first compound 0.0316 µM): 66.8% | viability, T/C (second compound 10 µM, first compound 0.1 µM): 59.5% | viability, T/C (second compound 10 µM, first compound 0.316 µM): 55.9% | viability, T/C (second compound 10 µM, first compound 1 µM): 69.5% | viability, T/C (second compound 10 µM, first compound 3.16 µM): 59.6% | viability, T/C (second compound 10 µM, first compound 10 µM): 46.4%

IC50 (second compound 0.00316 µM): > 3000 nM | IC50 (second compound 0.01 µM): > 3000 nM | IC50 (second compound 0.0316 µM): 1960 nM | IC50 (second compound 0.1 µM): 1210 nM | IC50 (second compound 0.316 µM): 278 nM | IC50 (second compound 1 µM): 184 nM
SMILES: Cc1nc(N2CCC3(CC2)COC(C)C3N)c(CO)nc1Sc1ccnc(N)c1Cl (configuration not stated) + CNC(C)C(=O)NC1CN(S(=O)(=O)c2cccc(S(=O)(=O)N3CCC4CCC(C(=O)NC(c5ccccc5)c5ccccc5)N4C(=O)C(NC(=O)C(C)NC)C3)c2)CCC2CCC(C(=O)NC(c3ccccc3)c3ccccc3)N2C1=O
viability, T/C (second compound 0.00316 µM, first compound 0.00949 µM): 107% | viability, T/C (second compound 0.00316 µM, first compound 0.03 µM): 95.9% | viability, T/C (second compound 0.00316 µM, first compound 0.0949 µM): 90.2% | viability, T/C (second compound 0.00316 µM, first compound 0.3 µM): 79.4% | viability, T/C (second compound 0.00316 µM, first compound 0.949 µM): 80% | viability, T/C (second compound 0.00316 µM, first compound 3 µM): 49.1% | viability, T/C (second compound 0.01 µM, first compound 0.00949 µM): 107% | viability, T/C (second compound 0.01 µM, first compound 0.03 µM): 94.5% | viability, T/C (second compound 0.01 µM, first compound 0.0949 µM): 76% | viability, T/C (second compound 0.01 µM, first compound 0.3 µM): 73.8% | viability, T/C (second compound 0.01 µM, first compound 0.949 µM): 64.9% | viability, T/C (second compound 0.01 µM, first compound 3 µM): 53.2% | viability, T/C (second compound 0.0316 µM, first compound 0.00949 µM): 91.4% | viability, T/C (second compound 0.0316 µM, first compound 0.03 µM): 81.8% | viability, T/C (second compound 0.0316 µM, first compound 0.0949 µM): 75.3% | viability, T/C (second compound 0.0316 µM, first compound 0.3 µM): 58.5% | viability, T/C (second compound 0.0316 µM, first compound 0.949 µM): 59% | viability, T/C (second compound 0.0316 µM, first compound 3 µM): 45.9% | viability, T/C (second compound 0.1 µM, first compound 0.00949 µM): 86.3% | viability, T/C (second compound 0.1 µM, first compound 0.03 µM): 78.9% | viability, T/C (second compound 0.1 µM, first compound 0.0949 µM): 71.8% | viability, T/C (second compound 0.1 µM, first compound 0.3 µM): 55.4% | viability, T/C (second compound 0.1 µM, first compound 0.949 µM): 58.4% | viability, T/C (second compound 0.1 µM, first compound 3 µM): 40.4% | viability, T/C (second compound 0.316 µM, first compound 0.00949 µM): 74.8% | viability, T/C (second compound 0.316 µM, first compound 0.03 µM): 63.4% | viability, T/C (second compound 0.316 µM, first compound 0.0949 µM): 59.4% | viability, T/C (second compound 0.316 µM, first compound 0.3 µM): 46.2% | viability, T/C (second compound 0.316 µM, first compound 0.949 µM): 46.3% | viability, T/C (second compound 0.316 µM, first compound 3 µM): 38.3% | viability, T/C (second compound 1 µM, first compound 0.00949 µM): 61.2% | viability, T/C (second compound 1 µM, first compound 0.03 µM): 61.9% | viability, T/C (second compound 1 µM, first compound 0.0949 µM): 51% | viability, T/C (second compound 1 µM, first compound 0.3 µM): 46.8% | viability, T/C (second compound 1 µM, first compound 0.949 µM): 40.8% | viability, T/C (second compound 1 µM, first compound 3 µM): 28.9%
